According to article PMC7204872, “The Biosynthesis of the Benzoxazole in Nataxazole Proceeds via an Unstable Ester and has Synthetic Utility” (Angewandte Chemie (International Ed. in English), 2020):

Tests used:
NatL2 [1] = biological target: T1, NatL2 (Streptomyces sp. Tu 6176, UniProt A0A022MRT4); assay: X-ray crystallography (soaked crystal); assay type: binding
T1 construct: N-terminal hexahistidine-tagged, expressed in E. coli; homodimer, structural Zn2+; residues 5-436 traced (C-terminal extension 405-436)
T1 sequence (A0A022MRT4 1-436): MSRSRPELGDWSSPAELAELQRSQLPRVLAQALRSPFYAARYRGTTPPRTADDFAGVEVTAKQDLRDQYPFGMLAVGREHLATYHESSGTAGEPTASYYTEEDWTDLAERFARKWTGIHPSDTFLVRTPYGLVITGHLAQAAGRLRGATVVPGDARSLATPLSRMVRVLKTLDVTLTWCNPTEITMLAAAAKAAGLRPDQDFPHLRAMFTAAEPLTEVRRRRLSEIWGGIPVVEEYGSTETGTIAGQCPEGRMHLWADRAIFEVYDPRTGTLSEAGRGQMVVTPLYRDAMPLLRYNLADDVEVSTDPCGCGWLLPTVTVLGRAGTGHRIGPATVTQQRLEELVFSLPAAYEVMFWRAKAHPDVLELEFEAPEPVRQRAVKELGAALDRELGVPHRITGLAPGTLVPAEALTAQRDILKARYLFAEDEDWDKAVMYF

NatL2 [2] = biological target: T1, NatL2; assay: X-ray crystallography, […] Å; assay type: binding; details: crystallised in the presence of ATP; density modelled as AMP; Lys418 from other monomer

Nc1ncnc2c1ncn2[C@@H]1O[C@H](COP(=O)(O)OP(=O)(O)NP(=O)(O)O)[C@@H](O)[C@H]1O [AMPPNP]
X-ray crystallography (soaked crystal) (NatL2 [1]; nucleotide site, binary complex and ternary with 3-HAA, no Mg2+ density): These crystals were soaked with AMPPNP and the resulting complex was essentially identical

Nc1ncnc2c1ncn2[C@@H]1O[C@H](COP(=O)(O)O)[C@@H](O)[C@H]1O [AMP]
X-ray crystallography, 1.9 Å (NatL2 [2]): Residual electron density in both monomers was best modelled as AMP not ATP

O=C(O)c1ccccc1O [SA]
X-ray crystallography (soaked crystal) (NatL2 [1]; soak of AMP:3-HAA crystals, two SA molecules in subunit A, no AMP, SA1 in 3-HAA1 pocket, SA2 in second substrate pocket, not turned over): In subunit A, two molecules of SA are bound but no AMP
